# From patent publication US9006191B2, “Silencing of polo-like kinase expression using interfering RNA” (Protiva Biotherapeutics, Inc., priority 2007, dated 2015)
# Experiments:
# [1] = system: IFIT1 mRNA, serum IFNα; test: In vivo immune stimulation assay in Balb/c mice (IFIT1 mRNA, serum IFNα); details: SNALP-formulated siRNA IV
# Method: Balb/c mice (n=4 per group) were administered 2.5 mg/kg siRNA or lipid vehicle; serum IFNα (pg/mL) and IFIT1 mRNA (relative to GAPDH) from whole liver lysates were assessed after 4, 8, and 16 h by ELISA and bDNA assay, respectively. […] (b) Serum IFNα and (c) liver IFIT1 mRNA were assessed 4 h after administration (mean+SD, n=4).
# SNALP-formulated Luc (unmodified) and the 2′OMe-modified Luc-U/U, PLK1424-2/A, PLK773-1/B, or KSP2263-U/U siRNA were administered at 2 mg/kg i.v. to Balb/C mice. (A) IFIT1 relative to GAPDH mRNA in liver and spleen was assessed at 4 h by bDNA analysis. […] Serum IFNα was assessed at 6 h by ELISA. […] Values represent mean+SD (n=4).
# IFIT1 mRNA and serum cytokines were assessed 4-6 h after SNALP administration based on the approximate time of peak response for these markers. In these studies, SNALP-formulated native Luc siRNA (Table 6) was used as a positive control for immune stimulation.
# In vivo immune stimulation assays. […] 6-8 week old Balb/C mice were obtained from Harlan and subject to a two week acclimation period prior to use. Mice were administered SNALP formulated siRNA (2 mg/kg) in PBS via standard intravenous injection in the lateral tail vein. Blood was collected by cardiac puncture and processed as plasma for cytokine analysis. Liver and spleen were collected into RNALater (Sigma Co.) for IFIT1 mRNA analysis.
# Measurement of IFIT1 mRNA in mouse tissues. Murine liver and spleen were processed for bDNA assay to quantitate IFIT1 mRNA as described above. The IFIT1 probe set was specific to mouse IFIT1 mRNA (positions 4-499 of NM—008331) and the GAPDH probe set was specific to mouse GAPDH mRNA (positions 9-319 of NM—008084). Data is shown as the ratio of IFIT1 relative light units (RLU) to GAPDH RLU.
# Cytokine ELISA. All cytokines were quantified using sandwich ELISA kits. These were mouse interferon-α (PBL Biomedical; Piscataway, N.J.) and human and mouse IL-6 (BD Biosciences; San Diego, Calif.).
# [2] = system: Neuro2A cells; test: Neuro2A cell viability assay (CellTiter-Blue); assay type: cell-based; details: mouse Neuro2A cells, SNALP-formulated siRNA, viability at 72 h relative to PBS
# Method: (§1) Various PLK-1 siRNAs were formulated as SNALP (“2:40” SNALP formulation: 2% PEG-cDMA; 40% DLinDMA; 10% DSPC; and 48% cholesterol) and evaluated for their inhibitory effects on cell growth in vitro. HT29 (human colon adenocarcinoma) or Neuro2A (mouse neuroblastoma) cells were treated with various PLK-1 SNALP at a range of siRNA concentrations and their effect on cell viability was evaluated. Viability of cell cultures is expressed as % viability relative to PBS treated controls.
# Additional PLK-1 siRNA molecules were formulated as SNALP (“2:40” SNALP formulation: 2% PEG-cDMA; 40% DLinDMA; 10% DSPC; and 48% cholesterol) and evaluated for their inhibitory effects on cell growth in vitro. HT29 or Neuro2A cells were plated in triplicate at 5000 cells/well and 2500 cells/well, respectively. PLK-1 SNALP dosages were as follows: 25 nM; 5 nM; and 1 nM. Cell viability analysis was performed at 72 hours following transfection. SNALP containing a non-targeting (GFP) siRNA were used as a negative control.
# Additional PLK-1 siRNA molecules were formulated as SNALP (“2:40” SNALP formulation: 2% PEG-cDMA; 40% DLinDMA; 10% DSPC; and 48% cholesterol) and evaluated for their inhibitory effects on cell growth in vitro. HT29 or Neuro2A cells were plated in triplicate at 5000 cells/well and 2500 cells/well, respectively. PLK-1 SNALP dosages were as follows: 30 nM; 10 nM; and 3.3 nM. Cell viability analysis was performed at 72 hours following transfection. SNALP containing a non-targeting (GFP) siRNA were used as a negative control.
# [3] = system: anti-PEG-lipid IgG and IgM antibodies; test: In vivo PEG-lipid antibody induction assay; design: species or system mouse; details: CD1 ICR mice, 1:57 SNALP IV at Days 0, 7, 14; plasma Days 7, 14, 21
# Method: In vivo PEG-lipid antibody induction assays. Animal studies were performed to test for the induction of an antibody response to 2′OMe-modified PLK1424 siRNAs that were encapsulated in a 1:57 SNALP formulation containing the lipid conjugate PEG-cDMA. Six-week-old female CD1 ICR mice were used in this study. […] Mice were then sacrificed on Day 21. The tolerability of the treatment regime was monitored by animal appearance, behavior, and body weight. Anti-PEG-lipid IgG and IgM antibodies in plasma at Days 7, 14, and 21 were measured by ELISA.
# [4] = system: IFN-α, IFIT1 mRNA; test: In vivo immune stimulation assay in CD1 ICR mice (plasma IFN-α, IFIT1 mRNA); design: species or system mouse; details: 1:57 PEG-cDMA SNALP, 3 mg/kg IV, 4 h
# Method: In vivo immune stimulation assays. Animal studies were performed to test for the immunostimulatory activity of SNALP containing 2′OMe-modified PLK1424 siRNAs. Six-week-old female CD1 ICR mice were used in this study. […] The tolerability of the treatment regime was monitored by animal appearance and behavior.
# [5] = system: HT29 cells; test: HT29 cell viability assay (CellTiter-Blue); assay type: cell-based, human; details: HT29 cells, SNALP-formulated siRNA at a range of siRNA concentrations, viability at 72 h relative to PBS
# Method: as §1
# Additional PLK-1 siRNA molecules were formulated as SNALP (“2:40” SNALP formulation: 2% PEG-cDMA; 40% DLinDMA; 10% DSPC; and 48% cholesterol) and evaluated for their inhibitory effects on cell growth in vitro. HT29 or Neuro2A cells were plated in triplicate at 5000 cells/well and 2500 cells/well, respectively. PLK-1 SNALP dosages were as follows: 25 nM; 5 nM; and 1 nM. Cell viability analysis was performed at 72 hours following transfection. SNALP containing a non-targeting (GFP) siRNA were used as a negative control. […]
# PLK-1 siRNA molecules containing 2′-O-methyl (2′OMe) nucleotides at selective positions within the double-stranded region of the siRNA duplex were formulated as SNALP (“2:40” SNALP formulation: 2% PEG-cDMA; 40% DLinDMA; 10% DSPC; and 48% cholesterol) and evaluated for their inhibitory effects on cell growth in vitro. HT29 cells were plated in triplicate at 5000 cells/well. Cell viability analysis was performed at 72 hours following transfection with a range of PLK-1 SNALP dosages. SNALP containing a non-targeting (GFP) siRNA were used as a negative control.
# Cell viability assays. […] Cell viability analysis was performed at 72 hours following transfection with a range of PLK-1 SNALP dosages.
substance,measurement,setting,value
"U(S)-ApoB1: ApoB-1 siRNA with 2′OMe-modified sense strand, SEQ ID NO:284/285 (sense GNCANCACACNGAANACCAAN; antisense AUUGGUAUUCAGUGUGAUGACAC; 2'-OMe on sense strand, chemistry not fully specified)",serum IFNα / serum cytokine response,[1]; 4-6 h,no measurable serum cytokine response
same,IFIT1 mRNA induction in liver and spleen,[1]; 4 h,induction of IFN-inducible p56 IFIT1 mRNA in the liver and spleen
"mPLK1608: siRNA to mouse PLK-1, SEQ ID NO:45/46 (chain 1 GGACCACACCAAACUUAUC; chain 2 GAUAAGUUUGGUGUGGUCC; listed as RNA, chemistry not given here)",cell viability / inhibition of cell growth,[2],most active mouse-specific PLK-1 siRNA sequences
"PLK1424 2/3: 2′OMe-modified PLK1424 siRNA, SEQ ID NO:400/215 (chain 1 AGANCACCCNCCUNAAANANU; chain 2 UAUUUAANGAGGGUGANCUUU; 2'-OMe modifications, chemistry not fully specified)",IgG / IgM antibody response against PEG-lipid (PEG-cDMA),[3],almost no detectable antibody responses against the PEG-lipid
same,IFIT1 induction (QG analysis),[4],no significant IFIT1 induction above that of empty SNALP
"PLK1424 2/4: 2′OMe-modified PLK1424 siRNA, SEQ ID NO:400/401 (chain 1 AGANCACCCNCCUNAAANANU; chain 2 UAUUUAANGAGGGUGANCUUC; 2'-OMe modifications, chemistry not fully specified)",IgG / IgM antibody response against PEG-lipid (PEG-cDMA),[3],almost no detectable antibody responses against the PEG-lipid
same,IFIT1 induction (QG analysis),[4],no significant IFIT1 induction above that of empty SNALP
"mPLK1607: siRNA to mouse PLK-1, SEQ ID NO:43/44 (chain 1 AGGACCACACCAAACUUAU; chain 2 AUAAGUUUGGUGUGGUCCU; listed as RNA, chemistry not given here)",cell viability / inhibition of cell growth,[2],most active mouse-specific PLK-1 siRNA sequences
"PLK1229: siRNA to human PLK-1, SEQ ID NO:21/22 (chain 1 GGGUCAGCAAGUGGGUGGA; chain 2 UCCACCCACUUGCUGACCC; listed as RNA, chemistry not given here)",cell viability / killing of human tumor cells,[5],effective at killing human tumor cells
same,cell viability / inhibition of cell growth,[2],most potent human/mouse cross-reactive siRNA molecules
"mPLK1424: siRNA to mouse PLK-1, SEQ ID NO:35/36 (chain 1 AGAUCACUCUCCUCAACUA; chain 2 UAGUUGAGGAGAGUGAUCU; listed as RNA, chemistry not given here)",cell viability / inhibition of cell growth,[2],most active mouse-specific siRNA sequences
"PLK1232: siRNA to human PLK-1, SEQ ID NO:23/24 (chain 1 UCAGCAAGUGGGUGGACUA; chain 2 UAGUCCACCCACUUGCUGA; listed as RNA, chemistry not given here)",cell viability / killing of human tumor cells,[5],effective at killing human tumor cells
same,cell viability / inhibition of cell growth,[2],most potent human/mouse cross-reactive siRNA molecule
"mPLK1425: siRNA to mouse PLK-1, SEQ ID NO:37/38 (chain 1 GAUCACUCUCCUCAACUAU; chain 2 AUAGUUGAGGAGAGUGAUC; listed as RNA, chemistry not given here)",cell viability / inhibition of cell growth,[2],most active mouse-specific siRNA sequences
"mPLK1668: siRNA to mouse PLK-1, SEQ ID NO:49/50 (chain 1 GAGGGACUUCCAAACGUAC; chain 2 GUACGUUUGGAAGUCCCUC; listed as RNA, chemistry not given here)",cell viability / inhibition of cell growth,[2],most active mouse-specific PLK-1 siRNA sequences
"PLK1424 2/6: 2′OMe-modified PLK1424 siRNA, SEQ ID NO:400/403 (chain 1 AGANCACCCNCCUNAAANANU; chain 2 UAUUUAANGAGGGUNANCUNC; 2'-OMe modifications, chemistry not fully specified)",IgG / IgM antibody response against PEG-lipid (PEG-cDMA),[3],almost no detectable antibody responses against the PEG-lipid
same,IFIT1 induction (QG analysis),[4],no significant IFIT1 induction above that of empty SNALP
"PLK1345: siRNA to human PLK-1, SEQ ID NO:29/30 (chain 1 GACAGCCUGCAGUACAUAG; chain 2 CUAUGUACUGCAGGCUGUC; listed as RNA, chemistry not given here)",cell viability / killing of human tumor cells,[5],"inhibited the growth of human tumor cells, but at higher siRNA concentrations"
same,cell viability / inhibition of cell growth,[2],effective at inhibiting the growth of mouse Neuro2A cells at higher siRNA concentrations
